# Test results published in patent publication US12390472B2 (SUZHOU SINOVENT PHARMACEUTICALS CO., LTD., priority 2018, dated 2025).
# Read-outs that look alike come from different tables or passages of the source.
# Key:
# EZH2 enzyme complex = EZH2 enzyme complex (Homo sapiens (Human), UniProt Q15910); test: Test on EZH2 inhibitory activity (TR-FRET); format: biochemical; conditions: EZH2 enzyme complex 25 ng/uL, histone H3 peptide 4 uM, SAM 2 uM, 300 min; read-out: IC50 of EZH2 inhibition
# Description: • EZH2 enzyme complex: 25 ng/uL • Histone H3 peptide substrate: 4 uM • SAM: 2 uM • Reaction time: 300 min Procedures • 1. Each compound disclosed herein was diluted with 1×HMT buffer and transferred to a 384-well assay plate at 3 uL per well; • 2. The EZH2 enzyme solution was prepared with 1×HMT buffer and transferred to the 384-well assay plate at 2 uL per well; • 3. The above assay plate was incubated for 30 min; • 4. A mixture solution of SAM and histone H3 peptide substrate at 2-fold concentration was prepared with 4×HMT buffer; • 5. 5 uL of the mixture solution of SAM and substrate was added to each well of the assay plate to react at room temperature, and the assay plate was sealed with plastic; • 6. After incubation for 5 h, 10 uL of TR-FRET detection buffer containing Tb-labeled antibody and dye-labeled receptor was added to each well of the assay plate; • 7. After incubation for 1 h at room temperature, the assay plate was detected; • 8.
# Pfeiffer cells = test: Experiment on Pfeiffer cell proliferation (CellTiter-Glo); format: cell-based, human; conditions: Homo sapiens
# Description: 90 uL of cells were added to each well of a 96-well plate at 12000 cells/well, and cell-free culture medium was added to blank control wells. The plate was incubated overnight in an incubator at 37° C., 5% CO2 and 100% relative humidity. The compounds were diluted from highest to lowest concentration gradient with DMSO to make stock solutions at 400-fold and 10-fold concentration. 10 μL of 10× compound working solution was added to the cell culture plate, and the total concentration of the compound was detected from 10 μM, 9 concentration points in total, and 3-fold serial dilution was performed. 10 μL of DMSO-cell culture medium mixture solution was added to the vehicle control wells and blank control wells. The final concentration of DMSO was 0.25%. The plate was put back in the incubator for another 7 days of culturing.
# The cell culture plate cultured for 7 days was taken out of the incubator, and the suspended cells in the 96-well plate were mixed well by pipetting multiple times. 74 uL of fresh cell culture medium was added to a new 96-well plate, and 16 uL of cell suspension was pipetted from the 96-well plate with cells mixed well by pipetting into the new 96-well plate to bring the total volume to 90 uL. Cells in the new 96-well plate were treated with the compound. The new 96-well plate was put back in the incubator for another 7 days of culturing, and then cell viability was detected directly.
# 84 μL of cell suspension was taken from the cell culture plate for cell viability detection.
# CellTiter-Glo buffer and substrate were thawed and balanced to room temperature. The CellTiter-Glo buffer was added to a bottle of CellTiter-Glo substrate to dissolve the substrate, thereby preparing CellTiter-Glo working solution. The bottle was subjected to slow vortex shaking to completely dissolve the substrate. The cell culture plate was taken out and balanced to room temperature for 30 min. 50 μL of CellTiter-Glo working solution was added to each well. The cell plate was wrapped with aluminum foil to keep out of light. The plate was shaken on an orbital shaker for 2 min to induce cell lysis. The plate was placed at room temperature for 10 min to stabilize the luminescence signals. The luminescence signals were detected on 2104 En Vision plate reader.
# Inhibition rates of compounds at different concentrations were calculated in Excel, followed by plotting the inhibition curves and calculating relevant parameters including minimum (%), maximum (%), and absolute IC50 using GraphPad Prism software.
# Chain of EZH2 enzyme complex (Q15910 whole entry): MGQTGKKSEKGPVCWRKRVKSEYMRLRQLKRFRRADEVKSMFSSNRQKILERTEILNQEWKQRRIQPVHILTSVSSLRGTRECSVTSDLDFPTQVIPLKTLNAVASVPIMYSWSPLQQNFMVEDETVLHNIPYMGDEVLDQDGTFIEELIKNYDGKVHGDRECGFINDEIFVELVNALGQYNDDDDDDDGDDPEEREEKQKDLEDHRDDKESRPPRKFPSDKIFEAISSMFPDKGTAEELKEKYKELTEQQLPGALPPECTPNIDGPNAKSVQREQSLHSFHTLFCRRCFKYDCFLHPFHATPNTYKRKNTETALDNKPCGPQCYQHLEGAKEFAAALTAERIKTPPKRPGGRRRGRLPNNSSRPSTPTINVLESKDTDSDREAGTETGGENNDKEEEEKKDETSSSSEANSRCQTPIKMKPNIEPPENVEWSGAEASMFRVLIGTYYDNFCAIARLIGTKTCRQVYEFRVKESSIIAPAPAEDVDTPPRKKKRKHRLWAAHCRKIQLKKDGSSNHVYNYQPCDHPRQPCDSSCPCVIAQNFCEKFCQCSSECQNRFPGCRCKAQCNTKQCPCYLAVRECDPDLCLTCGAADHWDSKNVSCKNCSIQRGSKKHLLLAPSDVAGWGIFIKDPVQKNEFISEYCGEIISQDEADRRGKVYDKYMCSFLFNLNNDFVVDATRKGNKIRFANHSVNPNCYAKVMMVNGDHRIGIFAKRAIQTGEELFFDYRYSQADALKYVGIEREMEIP
# Chain of EZH2 enzyme complex (O75530 whole entry partner): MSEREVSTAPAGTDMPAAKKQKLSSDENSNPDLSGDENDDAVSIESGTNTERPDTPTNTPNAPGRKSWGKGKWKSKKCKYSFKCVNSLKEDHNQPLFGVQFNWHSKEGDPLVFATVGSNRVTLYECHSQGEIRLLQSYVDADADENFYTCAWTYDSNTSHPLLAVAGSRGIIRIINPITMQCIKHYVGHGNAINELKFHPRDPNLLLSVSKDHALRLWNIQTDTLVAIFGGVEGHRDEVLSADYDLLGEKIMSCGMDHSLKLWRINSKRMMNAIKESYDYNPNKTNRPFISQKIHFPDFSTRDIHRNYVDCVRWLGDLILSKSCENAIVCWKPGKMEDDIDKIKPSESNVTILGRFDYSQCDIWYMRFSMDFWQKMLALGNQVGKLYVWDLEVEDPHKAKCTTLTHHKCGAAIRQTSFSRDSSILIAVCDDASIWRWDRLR
# Chain of EZH2 enzyme complex (Q15022 whole entry partner): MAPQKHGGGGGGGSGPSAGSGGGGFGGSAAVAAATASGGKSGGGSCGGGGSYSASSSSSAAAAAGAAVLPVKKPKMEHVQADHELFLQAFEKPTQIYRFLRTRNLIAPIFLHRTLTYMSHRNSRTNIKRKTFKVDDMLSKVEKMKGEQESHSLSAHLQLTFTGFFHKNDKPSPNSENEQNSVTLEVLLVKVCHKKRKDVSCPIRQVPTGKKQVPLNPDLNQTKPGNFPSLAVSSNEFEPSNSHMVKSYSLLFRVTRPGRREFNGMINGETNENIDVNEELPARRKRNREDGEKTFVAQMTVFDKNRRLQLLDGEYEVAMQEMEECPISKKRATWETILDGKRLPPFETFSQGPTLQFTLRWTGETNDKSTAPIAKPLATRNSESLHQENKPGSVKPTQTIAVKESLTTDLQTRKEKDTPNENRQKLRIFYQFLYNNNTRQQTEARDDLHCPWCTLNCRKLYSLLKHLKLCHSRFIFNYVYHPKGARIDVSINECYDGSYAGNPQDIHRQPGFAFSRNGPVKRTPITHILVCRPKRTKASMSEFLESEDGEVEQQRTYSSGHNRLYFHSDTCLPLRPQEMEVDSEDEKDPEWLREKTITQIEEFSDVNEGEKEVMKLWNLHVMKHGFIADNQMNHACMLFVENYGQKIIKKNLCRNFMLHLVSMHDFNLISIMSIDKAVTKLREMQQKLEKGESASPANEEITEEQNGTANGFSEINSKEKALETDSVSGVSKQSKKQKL
compound,measurement,setting,value
"CCN(c1cc(O[C@H]2C[C@H](N3C[C@@H](C)O[C@@H](C)C3)C2)cc(C(=O)NCc2c(C)cc(C)[nH]c2=O)c1C)C1CCC(F)(F)CC1 [Example 45, 3-((4,4-difluorocyclohexyl)(ethyl)amino)-N-((4,6-dimethyl-2-oxo-1,2-dihydropyridin-3-yl)methyl)-5-(trans-3-(cis-2,6-dimethylmorpholinyl)cyclobutoxy)-2-methylbenzamide]",IC50,EZH2 enzyme complex,10 to 100 nM
same,IC50,"Pfeiffer cells; 168 h, Day 7, read-out: IC50 Pfeiffer proliferation Day 7",69 nM
same,IC50,"Pfeiffer cells; 336 h, Day 14, read-out: IC50 Pfeiffer proliferation Day 14",9.7 nM
